Read-outs that look alike come from different tables or passages of the source.
Key:
wild-type E. coli GalK [1] = target: T1, wild-type E. coli GalK (Escherichia coli, UniProt P0A6T3); format: biochemical
T1 construct: made in house
T1 sequence (P0A6T3 1-382): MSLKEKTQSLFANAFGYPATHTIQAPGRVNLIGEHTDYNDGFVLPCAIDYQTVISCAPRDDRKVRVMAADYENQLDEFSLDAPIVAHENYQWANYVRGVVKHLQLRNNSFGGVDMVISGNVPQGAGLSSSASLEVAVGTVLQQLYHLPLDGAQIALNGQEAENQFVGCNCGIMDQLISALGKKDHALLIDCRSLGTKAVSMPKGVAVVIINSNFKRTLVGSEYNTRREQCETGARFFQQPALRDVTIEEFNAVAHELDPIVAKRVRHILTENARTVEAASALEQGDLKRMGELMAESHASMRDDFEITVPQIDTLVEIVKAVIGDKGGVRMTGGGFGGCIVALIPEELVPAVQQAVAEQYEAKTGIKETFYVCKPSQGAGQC
Source text: (§1) Characterization of GalK Mutants. […] The mutant enzymes were purified by using metal affinity chromatography on Ni-NTA Spin Columns (QIAGEN, Valencia, Calif.) and fractions containing homogenous protein were collected, concentrated and quantified using the Bradford protein assay. The DNS assay was used to assess the substrate specificity of the purified GalK mutants as previously described. […] For each sugar, the DNS assay was used to monitor the reaction progress and control assays in the absence of enzyme or sugar were performed in parallel. Standard curves for each sugar were prepared as described. To assess general percent conversion, each reaction contained 15.0 (M enzyme, 8 mM sugar, 14 mM ATP and 3.5 mM MgCl2. The reactions were incubated at 37° C. for 3 hrs after which the reactions were quenched with MeOH, centrifuged (10 min, 12,000 rpm) and then the supernatant (diluted 20-fold) submitted for LC-MS and MS/MS analysis. For monosaccharide kinetic data determination, the sugar concentration was varied over a range of 1-8 mM, under saturating ATP (14 mM). Reaction progress was assessed via the DNS assay, wherein a change in absorbance at 575 nm as a function of time was obtained and the initial velocity determined by the slope of the linear phase in the progress curve. The kinetic data was analyzed using Enzyme Kinetics Module software (SSPS, Inc., Chicago, Ill.) as previously described.
(§2) Characterization of Engineered E. coli GalK Mutants.

[2] = target: T2, E. coli GalK Y371H mutant (Escherichia coli, UniProt P0A6T3, Y371H); format: biochemical
T2 construct: His-tag (concluded from Ni-NTA purification and vector pET15b); made in house; host or cells: E. coli BL21-Gold (DE3), vector pET15b
T2 sequence (P0A6T3 whole entry Y371H): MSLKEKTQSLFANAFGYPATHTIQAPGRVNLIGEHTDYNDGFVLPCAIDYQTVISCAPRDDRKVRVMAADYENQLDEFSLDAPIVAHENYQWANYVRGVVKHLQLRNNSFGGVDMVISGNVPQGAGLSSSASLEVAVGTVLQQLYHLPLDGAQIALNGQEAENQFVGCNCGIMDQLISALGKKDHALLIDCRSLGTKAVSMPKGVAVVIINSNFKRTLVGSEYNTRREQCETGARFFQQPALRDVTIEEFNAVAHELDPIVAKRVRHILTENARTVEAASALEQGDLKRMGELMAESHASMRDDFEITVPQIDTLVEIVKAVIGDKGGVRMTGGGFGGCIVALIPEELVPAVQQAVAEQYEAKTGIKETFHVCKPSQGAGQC
Source text: as §1, §2

Y371H-M173L GalK = target: T3, Y371H-M173L GalK (Escherichia coli, UniProt P0A6T3, M173L/Y371H); test: In vivo conversion of fed unnatural sugars to sugar-1-phosphates in E. coli host overexpressing GalK double mutant; format: cell-based; settings: sugar fed at 4 mM to E. coli overexpressing Y371H-M173L GalK, 16° C., 16 hr; fluorescence HPLC after labelling with 50
T3 construct: His-tag (concluded: same plasmid pGalKMLYH in pET-15b whose product was purified on Ni-NTA); expressed in transfected cells; host or cells: E. coli host carrying pGalKMLYH (pET-15b), IPTG-induced at 16 °C
T3 sequence (P0A6T3 whole entry M173L/Y371H): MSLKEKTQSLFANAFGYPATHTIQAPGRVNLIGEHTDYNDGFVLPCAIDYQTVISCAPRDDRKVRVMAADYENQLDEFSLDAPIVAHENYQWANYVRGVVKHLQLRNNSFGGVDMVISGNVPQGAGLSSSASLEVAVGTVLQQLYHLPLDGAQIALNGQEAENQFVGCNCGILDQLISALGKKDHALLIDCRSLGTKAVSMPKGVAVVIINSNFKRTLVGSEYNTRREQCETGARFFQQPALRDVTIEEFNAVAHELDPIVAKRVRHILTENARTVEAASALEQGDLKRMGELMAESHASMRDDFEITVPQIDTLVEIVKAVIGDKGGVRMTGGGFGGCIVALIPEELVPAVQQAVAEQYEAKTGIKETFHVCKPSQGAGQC
Source text: FIG. 9. In vivo GalK-catalyzed sugar-1-phosphate production. (a) Experimental overview using 6-azido-6-deoxy-D-galactose (22) as an example: 22 is fed to an E. coli host expressing the M173L-Y371H GalK double mutant and the reactants and products subsequently labeled using a […] with the fluorescent tag 50. (b) HPLC chromatographs of bioconversions: i)22 with Y371H-M173L GalK; ii)46 with Y371H-M173L GalK; iii) 22 with wild-type GalK. MS: 50, calculated for C20H25N3O3S 387.2, found m/z 386.1 [M−H]^−; 51, calculated for C26H37N6O11PS 672.2, found m/z 671.2 [M−H]^−; 52, calculated for C26H36N6O8S 592.2, found m/z 591.2 [M−H]
In Vivo Conversion Analysis. […] The reaction mixture was subsequently centrifuged to remove CuI and the supernatant (diluted 2-fold) directly analyzed by HPLC and LC-MS calculated for C26H37N6O11PS 672.20, found m/z […] 671.20.
To assess the Y371H-M173L GalK-catalyzed in vivo production of unnatural sugar-1-phosphates (FIG. 9a), the unnatural sugars (22 or 46, 4 mM final concentration) were fed to an E. coli host (40 mL culture) which overexpressed the promiscuous GalK. After a designated time, the extracts were analyzed via the specific attachment of a fluorescent tag (50), to both starting material (22 or 46) and desired sugar-1-phosphate products, using 1,3-dipolar cycloaddition. […]

[3] = target: T4, E. coli GalK M173L mutant (Escherichia coli, UniProt P0A6T3, M173L); test: Substrate screen / percent conversion of 45 sugars, M173L; format: biochemical
T4 construct: His-tag (concluded from Ni-NTA purification and vector pET15b); made in house
T4 sequence (P0A6T3 whole entry M173L): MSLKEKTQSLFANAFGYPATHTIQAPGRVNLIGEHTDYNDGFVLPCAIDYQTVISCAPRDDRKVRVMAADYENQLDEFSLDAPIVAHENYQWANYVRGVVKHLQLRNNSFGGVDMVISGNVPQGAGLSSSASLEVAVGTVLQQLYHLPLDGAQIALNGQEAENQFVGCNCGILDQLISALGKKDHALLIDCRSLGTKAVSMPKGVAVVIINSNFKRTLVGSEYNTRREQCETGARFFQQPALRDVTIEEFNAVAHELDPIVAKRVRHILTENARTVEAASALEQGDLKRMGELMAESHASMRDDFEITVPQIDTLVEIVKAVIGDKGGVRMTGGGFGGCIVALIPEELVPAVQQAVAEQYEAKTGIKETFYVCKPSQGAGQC
Source text: as §1, §2

[4] = target: T5, E. coli double M173L-Y371H mutant GalK (Escherichia coli, UniProt P0A6T3, M173L/Y371H); test: Substrate screen / percent conversion of 45 sugars, M173L-Y371H; format: biochemical
T5 construct: His-tag (concluded from Ni-NTA purification and vector pET15b); made in house
T5 sequence (P0A6T3 whole entry M173L/Y371H): as the sequence (P0A6T3 whole entry M173L/Y371H) above
Source text: as §1, with “The reactions were incubated at 37° C. for 3 hrs after which the reactions were quenched with MeOH, centrifuged (10 min, 12,000 rpm) and then the supernatant (diluted 20-fold) submitted for LC-MS and MS/MS analysis.” left out
as §2

L. lactis wild-type GalK = target: T6, L. lactis wild-type GalK (Lactococcus lactis subsp. lactis, UniProt Q9R7D7); settings: in vitro, cited from earlier work
T6 sequence (Q9R7D7 1-399): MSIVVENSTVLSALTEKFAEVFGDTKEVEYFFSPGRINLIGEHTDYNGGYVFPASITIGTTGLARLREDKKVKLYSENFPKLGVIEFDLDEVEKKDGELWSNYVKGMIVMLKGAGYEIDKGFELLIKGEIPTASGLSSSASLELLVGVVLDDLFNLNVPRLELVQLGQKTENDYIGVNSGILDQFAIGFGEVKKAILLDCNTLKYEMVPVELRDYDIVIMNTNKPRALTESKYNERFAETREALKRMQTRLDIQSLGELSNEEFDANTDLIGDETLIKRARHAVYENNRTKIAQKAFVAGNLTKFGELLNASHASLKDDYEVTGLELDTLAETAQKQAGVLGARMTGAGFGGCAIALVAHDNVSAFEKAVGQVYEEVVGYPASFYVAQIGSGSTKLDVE

[5] = target: T7, E. coli GalK double mutant M173L-Y371H (Escherichia coli, UniProt P0A6T3, M173L/Y371H); test: Steady-state kinetic profiling (DNS assay), Table 2, M173L-Y371H; format: biochemical; settings: sugar 1-8 mM, saturating ATP (14 mM)
T7 construct: His-tag (concluded from Ni-NTA purification and vector pET15b); made in house
T7 sequence (P0A6T3 whole entry M173L/Y371H): as the sequence (P0A6T3 whole entry M173L/Y371H) above
Source text: as §1, with “The kinetic data was analyzed using Enzyme Kinetics Module software (SSPS, Inc., Chicago, Ill.) as previously described.” left out

L. lactis GalK Y385H = L. lactis GalK Y385H (Lactococcus lactis subsp. lactis, UniProt Q9R7D7, Y385H); settings: cited from earlier work
Sequence of L. lactis GalK Y385H (Q9R7D7 whole entry Y385H): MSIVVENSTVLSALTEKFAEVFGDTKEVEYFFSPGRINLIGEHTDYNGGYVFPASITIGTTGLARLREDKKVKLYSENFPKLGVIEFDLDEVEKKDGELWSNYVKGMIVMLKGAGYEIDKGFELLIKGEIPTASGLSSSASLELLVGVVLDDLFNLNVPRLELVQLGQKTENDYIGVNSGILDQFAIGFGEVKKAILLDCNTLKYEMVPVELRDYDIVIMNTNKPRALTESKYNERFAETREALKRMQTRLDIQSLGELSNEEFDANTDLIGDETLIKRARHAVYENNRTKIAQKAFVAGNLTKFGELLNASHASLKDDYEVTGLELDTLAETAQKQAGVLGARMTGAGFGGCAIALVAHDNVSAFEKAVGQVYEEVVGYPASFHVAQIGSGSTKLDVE

[6] = target: T8, E. coli GalK mutant M173L (Escherichia coli, UniProt P0A6T3, M173L); test: Steady-state kinetic profiling (DNS assay), Table 2, M173L; format: biochemical; settings: sugar 1-8 mM, saturating ATP (14 mM)
T8 construct: His-tag (concluded from Ni-NTA purification and vector pET15b); made in house
T8 sequence (P0A6T3 whole entry M173L): as the sequence (P0A6T3 whole entry M173L) above
Source text: as §1, with “The kinetic data was analyzed using Enzyme Kinetics Module software (SSPS, Inc., Chicago, Ill.) as previously described.” left out

GalK mutant Y371H = GalK mutant Y371H (Escherichia coli, UniProt P0A6T3, Y371H); settings: DNS assay and thin layer chromatography
Sequence of GalK mutant Y371H (P0A6T3 whole entry Y371H): as the sequence (P0A6T3 whole entry Y371H) above

wild-type E. coli GalK [7] = target: T1, wild-type E. coli GalK; test: Kinetics and substrate specificity of wild-type GalK with sugar substrates (DNS assay), Table 1; format: biochemical
GalK variant Y371H = target: T9, GalK variant Y371H (Escherichia coli, UniProt P0A6T3, Y371H); test: Preparative phosphorylation of L-altrose by GalK Y371H, conversion by DNS assay; format: biochemical, E. coli; settings: within four hours, 37° C., Y371H 150 μg mL^−1
T9 construct: His-tag (concluded from Ni-NTA purification and vector pET15b); made in house; host or cells: E. coli BL21-Gold (DE3), vector pET15b
T9 sequence (P0A6T3 whole entry Y371H): as above
Protocol: Preparative phosphorylation of L-altrose and product characterization. […] To this solution, ATP (125 mg, 0.23 mmol), MgCl2.6H2O (15.3 mg, 0.07 mmol) were added, the mixture incubated at 37° C. for 5 min, the reaction initiated via the addition of enzyme (Y371H) to a final concentration of 150 μg mL^−1 and reaction progress monitored by TLC. After completion, the mixture was diluted 5-fold in ddH2O and applied to a 200 mL anion exchange column (Q-Sepharose fast flow, Amersham, Piscataway, N.J.). The column was eluted with a gradient of 0-400 mM NaCl and the active fraction was collected and evaporated under reduced pressure. The crude product was desalted on a P-2 gel filtration column (The Nest Group, Southboro, Mass.) to give 16.1 mg of purified product (yield: 52%). [α]D=3.5° (c=1, H2O) ^1H NMR (D2O): 5.48 (dd, J=8.6, 1.8 Hz, 1H), 4.14 (dd, 5.3, 3.3 Hz, 1H), 3.99 (m, 1H), 3.98 (dd, J=4.3, 1.8 Hz, 1H), 3.91 (d, J=3.3, 1H), 3.89 (m, 1H), 3.84 (dd, J=12.1, 7.8 Hz, 1H); ^13C NMR (D2O): 94.10, 76.23, 70.70, 69.99, 65.68, 62.21; ^31P NMR (D2O): 3.77; MS: calculated for C6H13O9P 260.0, found m/z 259.0 [M−H]^−.
Confirmation of L-sugar conversion. […] To confirm the evolved enzyme retains regio- and stereoselectivity with L-sugar substrates, a representative L-sugar reaction product was further characterized. […]

[N-]=[N+]=NC[C@@H](O)[C@@H](O)[C@H](O)[C@@H](O)C=O [6-azido-6-deoxy-D-glucose (46), 6-azido-6-deoxy-D-glucose]
substrate of wild-type E. coli GalK (in words) (wild-type E. coli GalK [1]): not a substrates | substrate of Y371H (in words) [2]: failed | in vivo conversion to sugar-1-phosphate (Y371H-M173L GalK): ~15% | substrate of M173L (in words) [3]: failed | kinase activity of M173L-Y371H double mutant (in words) [4]: accept | in vitro yield (conversion) quoted for comparison with in vivo ([4]; in vitro): ~50% | in vitro conversion by M173L-Y371H ([4]; in vitro, in 2 hrs): ~15%

O=C[C@H](O)[C@@H](O)[C@H](O)[C@H](O)CO [D-Glc (27), D-glucose]
conversion by M173L ([3]; in 3 hr, 37° C., 8 mM sugar, 14 mM ATP, 3.5 mM MgCl2, 15.0 μM enzyme): 20% | conversion / activity with L. lactis wild-type GalK (in words) (L. lactis wild-type GalK): weak activity | conversion / activity with L. lactis wild-type GalK (in words) (L. lactis wild-type GalK; listed as D-glucose (27)): in vitro conversion | Km ([5]; read-out: Km, M173L-Y371H (D-Glc column)): 4 mM | Vmax, M173L-Y371H [5]: 0.02 (±0.01) mM min^−1 | activity with L. lactis GalK Y385H (in words) (L. lactis GalK Y385H): weak activity | Km ([6]; read-out: Km, M173L (D-Glc column)): 2.6 mM | Vmax, M173L [6]: 0.02 (±0.01) mM min^−1

O=C[C@H](O)[C@@H](O)[C@@H](O)[C@@H](O)CO [L-Alt (16), L-altrose]
kinase activity / turnover by GalK Y371H (in words) (GalK mutant Y371H): substantial degree of kinase activity | substrate of wild-type GalK (in words) (wild-type E. coli GalK [7]): failed as wild-type GalK substrates | conversion of L-altrose (GalK variant Y371H): 91%

— US7479385B2, “Sugar kinases with expanded substrate specificity and their use” (Wisconsin Alumni Research Foundation, priority 2003, dated 2009)
